Results published in patent publication US20160024051A1, “SALTS AND SOLID FORMS OF ISOQUINOLINONES AND COMPOSITION COMPRISING AND METHODS OF USING THE SAME” (INFINITY PHARMACEUTICALS, INC., priority 2013, published 2016).

Assays:
[1] = 24 hours
[2] = Storage at 25° C./93% RH for 1 week, re-analysis by XRPD/HPLC; type: physicochemical; details: after 1 week, XRPD
[3] = Thermodynamic aqueous solubility; type: physicochemical; details: at pH 6.47
[4] = Drying experiments: heating in an oven at 125° C. for two hours, XRPD; type: physicochemical
[5] = Gravimetric vapour sorption (GVS); type: physicochemical
How it was run: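 Moisture sorption isotherm at 25° C, 0-90% RH in 10% RH steps, 2 scans giving one full cycle, starting from 40% RH. Each step equilibrated 1-4 h until mass within 5% of predicted asymptote; solid re-checked by XRPD afterwards.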

[6] = Storage at 40° C./75% RH (elevated humidity) for 1 week, re-analysis by XRPD/HPLC; details: after 1 week, XRPD
Description: The crystalline solids were filtered, dried at ambient conditions, and stored at 40° C./75% RH for 1 week and analyzed by ^1H NMR/IC.
Samples from the screen using amorphous free base Compound 1 were analysed by ^1H-NMR and DSC, and re-analysis by XRPD was also carried out after drying at 50° C./vacuum and storage at 40° C./75% RH (the same sample was dried and stored at elevated humidity).

PI3K-γ = PI3K-γ (Homo sapiens, UniProt P48736); assay: Kd determination, PI3K-γ; type: binding
[7] = PK properties in non-clinical animal species (all species); type: in vivo, CD-1 mouse, Wistar rat, Cyno monkey, Beagle dog; details: non-clinical animal species
Description: (§1) For example, Compound 1 bis-hydrogen sulfate monohydrate was evaluated in CD-1 mouse, Wistar rat, Cyno monkey, and Beagle dog. Cross species allometric scaling of CL (drug clearance) and Vss (volume at steady state) predicts low CL, high Vss and long T112 for Compound 1 in humans.

PI3K-α = PI3K-α (Homo sapiens, UniProt P42336); assay: Kd determination, PI3K-α; type: binding
[8] = Free base solubility assessment in 15 solvents (free base Form 1); type: physicochemical
Description: Approximately 11 mg (0.022 mmol) portions of the free base Form 1 of Compound 1 (i.e., the compound of formula (I)) were weighed into 2 ml screw-topped HPLC vials. One of 15 solvents was added to each vial in a number of aliquots (up to 100 volumes), with shaking and if necessary with heating to 40° C., in an attempt to achieve dissolution.

PI3K-β = PI3K-β (Homo sapiens, UniProt P42338); assay: Kd determination, PI3K-β; type: binding
[9] = pKa of the basic nitrogen atoms; type: physicochemical; details: at least two basic nitrogen atoms
PI3K-δ = PI3K-δ (Homo sapiens, UniProt O00329); assay: Kd determination, PI3K-δ; type: binding
[10] = Cross species allometric scaling of CL and Vss to humans
Description: as §1

Sequence of PI3K-β (P42338 whole entry): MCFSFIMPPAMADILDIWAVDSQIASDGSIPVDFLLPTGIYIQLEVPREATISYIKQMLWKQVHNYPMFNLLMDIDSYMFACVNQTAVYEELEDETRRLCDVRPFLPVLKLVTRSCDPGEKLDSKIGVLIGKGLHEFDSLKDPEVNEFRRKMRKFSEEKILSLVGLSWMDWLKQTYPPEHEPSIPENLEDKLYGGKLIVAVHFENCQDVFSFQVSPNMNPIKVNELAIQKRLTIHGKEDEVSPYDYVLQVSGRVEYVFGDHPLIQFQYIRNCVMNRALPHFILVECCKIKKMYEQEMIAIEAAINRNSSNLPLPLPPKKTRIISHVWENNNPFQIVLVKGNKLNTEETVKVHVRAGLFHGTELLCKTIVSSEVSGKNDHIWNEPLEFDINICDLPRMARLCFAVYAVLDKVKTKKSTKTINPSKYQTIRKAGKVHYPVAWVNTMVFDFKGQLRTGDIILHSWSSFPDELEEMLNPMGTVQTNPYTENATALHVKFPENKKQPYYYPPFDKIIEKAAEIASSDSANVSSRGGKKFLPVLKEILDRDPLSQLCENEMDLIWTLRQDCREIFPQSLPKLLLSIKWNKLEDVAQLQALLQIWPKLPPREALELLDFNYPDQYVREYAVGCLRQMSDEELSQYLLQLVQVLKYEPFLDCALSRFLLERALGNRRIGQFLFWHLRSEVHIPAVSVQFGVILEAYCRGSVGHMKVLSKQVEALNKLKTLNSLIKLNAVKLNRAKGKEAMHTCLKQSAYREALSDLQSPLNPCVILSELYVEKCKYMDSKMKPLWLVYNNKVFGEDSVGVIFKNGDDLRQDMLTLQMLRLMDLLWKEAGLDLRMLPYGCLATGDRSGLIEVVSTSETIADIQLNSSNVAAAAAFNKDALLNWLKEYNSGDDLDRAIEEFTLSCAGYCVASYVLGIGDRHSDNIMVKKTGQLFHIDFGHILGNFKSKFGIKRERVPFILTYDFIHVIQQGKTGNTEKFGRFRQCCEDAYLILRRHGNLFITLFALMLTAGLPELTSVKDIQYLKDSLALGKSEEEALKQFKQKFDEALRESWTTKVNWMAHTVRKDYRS
Sequence of PI3K-β (P27986 whole entry partner): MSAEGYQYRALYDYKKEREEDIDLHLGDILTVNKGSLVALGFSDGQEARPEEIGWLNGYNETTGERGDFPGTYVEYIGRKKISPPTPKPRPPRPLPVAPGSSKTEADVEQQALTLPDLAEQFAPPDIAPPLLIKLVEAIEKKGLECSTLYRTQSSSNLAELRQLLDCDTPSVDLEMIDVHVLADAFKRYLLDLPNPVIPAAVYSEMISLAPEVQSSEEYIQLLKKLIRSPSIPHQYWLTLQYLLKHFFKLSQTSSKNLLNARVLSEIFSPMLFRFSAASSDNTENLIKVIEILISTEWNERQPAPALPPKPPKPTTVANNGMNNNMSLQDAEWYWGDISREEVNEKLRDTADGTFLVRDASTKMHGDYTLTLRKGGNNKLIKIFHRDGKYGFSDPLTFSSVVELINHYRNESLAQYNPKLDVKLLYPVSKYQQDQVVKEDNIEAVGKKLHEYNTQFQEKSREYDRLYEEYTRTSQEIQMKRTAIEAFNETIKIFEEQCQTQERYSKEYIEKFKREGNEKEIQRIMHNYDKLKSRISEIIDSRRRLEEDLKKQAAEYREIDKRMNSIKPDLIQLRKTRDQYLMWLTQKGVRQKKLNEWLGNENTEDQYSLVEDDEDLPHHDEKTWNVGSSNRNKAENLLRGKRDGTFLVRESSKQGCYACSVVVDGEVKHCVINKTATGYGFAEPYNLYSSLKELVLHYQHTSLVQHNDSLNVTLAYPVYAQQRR
Sequence of PI3K-γ (P48736 whole entry): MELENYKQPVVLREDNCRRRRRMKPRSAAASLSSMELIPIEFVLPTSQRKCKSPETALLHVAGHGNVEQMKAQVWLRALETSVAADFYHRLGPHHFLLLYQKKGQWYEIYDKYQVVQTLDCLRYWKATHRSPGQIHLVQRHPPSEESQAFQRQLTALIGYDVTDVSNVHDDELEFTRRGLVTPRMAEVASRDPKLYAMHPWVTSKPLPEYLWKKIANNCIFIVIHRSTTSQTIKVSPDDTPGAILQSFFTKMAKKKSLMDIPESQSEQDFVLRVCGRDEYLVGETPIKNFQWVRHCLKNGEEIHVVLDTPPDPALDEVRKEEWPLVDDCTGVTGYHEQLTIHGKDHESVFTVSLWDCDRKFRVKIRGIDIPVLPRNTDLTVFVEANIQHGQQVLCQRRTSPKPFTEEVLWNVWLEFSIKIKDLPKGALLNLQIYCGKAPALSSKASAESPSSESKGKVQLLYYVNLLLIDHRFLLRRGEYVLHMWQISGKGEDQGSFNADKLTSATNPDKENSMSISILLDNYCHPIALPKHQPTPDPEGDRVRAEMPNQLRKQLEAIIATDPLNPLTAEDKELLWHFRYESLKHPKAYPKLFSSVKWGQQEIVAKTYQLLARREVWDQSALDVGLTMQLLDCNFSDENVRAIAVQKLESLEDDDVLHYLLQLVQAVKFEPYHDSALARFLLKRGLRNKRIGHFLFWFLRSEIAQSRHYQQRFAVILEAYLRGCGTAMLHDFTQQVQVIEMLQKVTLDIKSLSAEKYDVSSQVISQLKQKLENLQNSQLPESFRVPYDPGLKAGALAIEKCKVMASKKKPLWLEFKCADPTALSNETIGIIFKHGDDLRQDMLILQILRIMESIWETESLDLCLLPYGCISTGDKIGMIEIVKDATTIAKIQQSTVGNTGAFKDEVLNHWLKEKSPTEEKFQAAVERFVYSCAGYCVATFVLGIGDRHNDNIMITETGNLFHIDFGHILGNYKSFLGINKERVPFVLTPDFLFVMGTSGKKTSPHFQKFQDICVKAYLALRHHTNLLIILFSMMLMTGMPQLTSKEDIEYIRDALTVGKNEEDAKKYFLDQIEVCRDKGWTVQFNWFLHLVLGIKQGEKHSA
Sequence of PI3K-α (P42336 whole entry): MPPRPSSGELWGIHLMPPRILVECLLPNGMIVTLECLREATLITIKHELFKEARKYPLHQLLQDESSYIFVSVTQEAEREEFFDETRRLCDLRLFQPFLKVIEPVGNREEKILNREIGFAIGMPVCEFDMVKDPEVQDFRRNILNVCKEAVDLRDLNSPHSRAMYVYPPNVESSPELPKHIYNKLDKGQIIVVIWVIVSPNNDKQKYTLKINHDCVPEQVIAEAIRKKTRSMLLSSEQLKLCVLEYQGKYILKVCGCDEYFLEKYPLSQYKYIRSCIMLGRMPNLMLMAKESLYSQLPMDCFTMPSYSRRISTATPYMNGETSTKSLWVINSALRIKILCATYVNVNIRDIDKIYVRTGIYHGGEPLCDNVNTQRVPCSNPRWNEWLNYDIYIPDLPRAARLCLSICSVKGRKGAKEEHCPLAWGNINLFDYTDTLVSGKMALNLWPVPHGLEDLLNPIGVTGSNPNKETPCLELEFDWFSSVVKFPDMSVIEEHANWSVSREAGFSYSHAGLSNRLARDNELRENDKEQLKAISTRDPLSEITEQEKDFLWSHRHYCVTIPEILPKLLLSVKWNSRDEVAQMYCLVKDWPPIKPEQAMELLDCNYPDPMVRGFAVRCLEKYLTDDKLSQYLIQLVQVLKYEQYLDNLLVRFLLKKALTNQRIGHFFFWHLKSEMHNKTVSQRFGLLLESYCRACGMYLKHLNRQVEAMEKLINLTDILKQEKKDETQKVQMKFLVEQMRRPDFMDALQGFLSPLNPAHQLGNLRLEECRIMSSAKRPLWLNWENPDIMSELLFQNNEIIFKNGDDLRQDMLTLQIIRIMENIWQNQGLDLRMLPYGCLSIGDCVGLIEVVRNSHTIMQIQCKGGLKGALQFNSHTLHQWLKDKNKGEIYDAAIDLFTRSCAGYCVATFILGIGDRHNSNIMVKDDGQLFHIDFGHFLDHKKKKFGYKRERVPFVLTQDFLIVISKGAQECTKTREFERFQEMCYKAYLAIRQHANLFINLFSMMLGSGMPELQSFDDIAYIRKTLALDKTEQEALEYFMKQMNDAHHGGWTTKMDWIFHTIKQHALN
Sequence of PI3K-α (P27986 whole entry partner): as the sequence (P27986 whole entry partner) above
Sequence of PI3K-δ (O00329 whole entry): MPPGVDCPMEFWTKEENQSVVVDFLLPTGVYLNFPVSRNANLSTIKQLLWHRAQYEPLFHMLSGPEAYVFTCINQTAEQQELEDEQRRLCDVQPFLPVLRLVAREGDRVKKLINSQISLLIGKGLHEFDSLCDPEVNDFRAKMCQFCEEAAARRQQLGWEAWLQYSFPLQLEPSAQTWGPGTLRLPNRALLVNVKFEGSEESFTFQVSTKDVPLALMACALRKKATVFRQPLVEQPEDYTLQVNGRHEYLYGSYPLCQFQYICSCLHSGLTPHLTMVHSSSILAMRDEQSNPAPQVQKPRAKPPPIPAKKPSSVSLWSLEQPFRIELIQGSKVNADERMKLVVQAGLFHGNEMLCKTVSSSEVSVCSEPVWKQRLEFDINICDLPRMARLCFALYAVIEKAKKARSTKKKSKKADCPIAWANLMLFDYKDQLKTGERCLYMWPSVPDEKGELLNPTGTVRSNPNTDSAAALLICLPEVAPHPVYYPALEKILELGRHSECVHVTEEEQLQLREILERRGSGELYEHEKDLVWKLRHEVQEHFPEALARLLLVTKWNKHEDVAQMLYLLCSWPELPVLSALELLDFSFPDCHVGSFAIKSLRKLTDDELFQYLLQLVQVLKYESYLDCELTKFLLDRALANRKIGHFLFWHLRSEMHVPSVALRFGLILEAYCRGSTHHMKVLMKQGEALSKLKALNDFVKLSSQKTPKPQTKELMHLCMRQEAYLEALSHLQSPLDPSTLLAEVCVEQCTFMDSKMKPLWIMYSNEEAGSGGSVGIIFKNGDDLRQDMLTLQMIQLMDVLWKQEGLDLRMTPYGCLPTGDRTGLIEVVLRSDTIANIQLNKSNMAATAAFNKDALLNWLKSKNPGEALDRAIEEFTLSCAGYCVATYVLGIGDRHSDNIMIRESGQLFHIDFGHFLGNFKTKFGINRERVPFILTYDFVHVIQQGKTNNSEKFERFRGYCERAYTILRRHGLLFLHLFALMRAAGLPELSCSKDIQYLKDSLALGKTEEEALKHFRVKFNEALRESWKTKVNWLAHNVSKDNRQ
Sequence of PI3K-δ (P27986 whole entry partner): as the sequence (P27986 whole entry partner) above

Compound: COc1cc(-c2cccc3cc([C@H](C)Nc4nc(N)ncc4C#N)n(-c4ccccc4)c(=O)c23)ccn1
- crystallinity after standing at RT [1]: decreases

Compound: COc1cc(-c2cccc3cc([C@H](C)Nc4nc(N)ncc4C#N)n(-c4ccccc4)c(=O)c23)ccn1.O [Compound 1 Free Base Form 2]
- Stability at 25° C./93% RH [2]: Very slight changes after 1 week
- Thermodynamic aqueous solubility [3]: 0.005 mg/mL, at pH 6.47
- Drying experiments: changes by XRPD [4]: very slight changes by XRPD
- GVS: immediate moisture uptake, up to ([5]; 40-50% RH, stable on sorption up to 90% RH and desorption down to 10% RH): uptake (40-50% RH up to 5.7% w/w) which remains
- GVS: moisture on loading ([5]; loaded at 40% RH, 25° C.): 4.7% w/w moisture on loading. Immediate moisture
- GVS: XRPD after the experiment ([5]; re-analysis by XRPD after GVS): 40% RH. Slight changes by XRPD after the experiment.
- Stability at 40° C./75% RH [6]: Very slight changes after 1 week

Compound: COc1cc(-c2cccc3cc([C@H](C)Nc4nc(N)ncc4C#N)n(-c4ccccc4)c(=O)c23)ccn1 [Compound 1, (S)-2-amino-4-((1-(8-(2-methoxypyridin-4-yl)-1-oxo-2-phenyl-1,2-dihydroisoquinolin-3-yl)ethyl)amino)pyrimidine-5-carbonitrile]
- koff (PI3K-γ): 0.000188 s⁻¹
- kon (PI3K-γ): 1.65e+06 M⁻¹ s⁻¹
- Kd (PI3K-γ; read-out: KD = koff/kon): 0.114 nM
- oral bioavailability [7]: Good oral bioavailability
- koff (PI3K-α): 0.053 s⁻¹
- kon (PI3K-α): 5.43e+06 M⁻¹ s⁻¹
- Kd (PI3K-α; read-out: KD = koff/kon): 9.76 nM
- volumes of solvent in which Compound 1 dissolved ([8]; 2-MeTHF): 50 vol.
- volumes of solvent in which Compound 1 dissolved ([8]; DMSO): 5 vol.
- volumes of solvent in which Compound 1 did not dissolve ([8]; EtOAC): > 100 vol.
- volumes of solvent in which Compound 1 did not dissolve ([8]; EtOH): > 100 vol.
- volumes of solvent in which Compound 1 did not dissolve ([8]; EtOH/H2O): > 100 vol.
- volumes of solvent in which Compound 1 did not dissolve ([8]; H2O): > 100 vol.
- volumes of solvent in which Compound 1 dissolved ([8]; MIBK): 40 vol.
- volumes of solvent in which Compound 1 dissolved ([8]; MeOH, shaking, if necessary heating to 40° C.): 75 vol.
- volumes of solvent in which Compound 1 dissolved ([8]; MeOH/anisole (50/50 v/v)): 10 vol.
- volumes of solvent in which Compound 1 did not dissolve ([8]; TBME): > 100 vol.
- volumes of solvent in which Compound 1 dissolved ([8]; THF): 40 vol.
- volumes of solvent in which Compound 1 did not dissolve ([8]; acetone): > 100 vol.
- volumes of solvent in which Compound 1 did not dissolve ([8]; acetonitrile): > 100 vol.
- volumes of solvent in which Compound 1 did not dissolve ([8]; anisole): > 100 vol.
- volumes of solvent in which Compound 1 dissolved ([8]; chloroform): 40 vol.
- koff (PI3K-β): 0.0126 s⁻¹
- kon (PI3K-β): 2.03e+06 M⁻¹ s⁻¹
- Kd (PI3K-β; read-out: KD = koff/kon): 6.24 nM
- pKa [9]: ~3.5
- koff (PI3K-δ): 0.000252 s⁻¹
- kon (PI3K-δ): 8.23e+06 M⁻¹ s⁻¹
- Kd (PI3K-δ; read-out: KD = koff/kon): 0.0306 nM
- CL (drug clearance) predicted in humans ([10]; allometric scaling): low
- T112 predicted in humans ([10]; allometric scaling): long
- Vss (volume at steady state) predicted in humans ([10]; allometric scaling): high
- Forai in humans ([10]; suggested by oral bioavailability in animals): good
